Like-named read-outs stand apart in the source and are kept apart here.
Legend:
[1] = molecular target: TNIK (Homo sapiens (Human), UniProt Q9UKE5); assay: TNIK enzymatic assay (radiometric kinase inhibition); type: biochemical
Method: The compounds were studied for function as TNIK inhibitors to generate the data of Table 1. […] (specific activity and concentration as required). The reaction is initiated by the addition of the Mg/ATP mix. After incubation for 40 minutes at room temperature, the reaction is stopped by the addition of phosphoric acid to a concentration of 0.5%.

[2] = molecular target: MAP4K4 (h) (Homo sapiens (Human), UniProt O95819); assay: MAP4K4 in vitro kinase assay (radiometric); type: biochemical; conditions: read-out: MAP4K4_IC50
Method: (specific activity and concentration as required). The reaction is initiated by the addition of the Mg/ATP mix. After incubation for 40 minutes at room temperature, the reaction is stopped by the addition of phosphoric acid to a concentration of 0.5%.

[3] = TNIK enzymatic assay, Table 1, read-out: IC50

Chain of MAP4K4 (h) (O95819 whole entry): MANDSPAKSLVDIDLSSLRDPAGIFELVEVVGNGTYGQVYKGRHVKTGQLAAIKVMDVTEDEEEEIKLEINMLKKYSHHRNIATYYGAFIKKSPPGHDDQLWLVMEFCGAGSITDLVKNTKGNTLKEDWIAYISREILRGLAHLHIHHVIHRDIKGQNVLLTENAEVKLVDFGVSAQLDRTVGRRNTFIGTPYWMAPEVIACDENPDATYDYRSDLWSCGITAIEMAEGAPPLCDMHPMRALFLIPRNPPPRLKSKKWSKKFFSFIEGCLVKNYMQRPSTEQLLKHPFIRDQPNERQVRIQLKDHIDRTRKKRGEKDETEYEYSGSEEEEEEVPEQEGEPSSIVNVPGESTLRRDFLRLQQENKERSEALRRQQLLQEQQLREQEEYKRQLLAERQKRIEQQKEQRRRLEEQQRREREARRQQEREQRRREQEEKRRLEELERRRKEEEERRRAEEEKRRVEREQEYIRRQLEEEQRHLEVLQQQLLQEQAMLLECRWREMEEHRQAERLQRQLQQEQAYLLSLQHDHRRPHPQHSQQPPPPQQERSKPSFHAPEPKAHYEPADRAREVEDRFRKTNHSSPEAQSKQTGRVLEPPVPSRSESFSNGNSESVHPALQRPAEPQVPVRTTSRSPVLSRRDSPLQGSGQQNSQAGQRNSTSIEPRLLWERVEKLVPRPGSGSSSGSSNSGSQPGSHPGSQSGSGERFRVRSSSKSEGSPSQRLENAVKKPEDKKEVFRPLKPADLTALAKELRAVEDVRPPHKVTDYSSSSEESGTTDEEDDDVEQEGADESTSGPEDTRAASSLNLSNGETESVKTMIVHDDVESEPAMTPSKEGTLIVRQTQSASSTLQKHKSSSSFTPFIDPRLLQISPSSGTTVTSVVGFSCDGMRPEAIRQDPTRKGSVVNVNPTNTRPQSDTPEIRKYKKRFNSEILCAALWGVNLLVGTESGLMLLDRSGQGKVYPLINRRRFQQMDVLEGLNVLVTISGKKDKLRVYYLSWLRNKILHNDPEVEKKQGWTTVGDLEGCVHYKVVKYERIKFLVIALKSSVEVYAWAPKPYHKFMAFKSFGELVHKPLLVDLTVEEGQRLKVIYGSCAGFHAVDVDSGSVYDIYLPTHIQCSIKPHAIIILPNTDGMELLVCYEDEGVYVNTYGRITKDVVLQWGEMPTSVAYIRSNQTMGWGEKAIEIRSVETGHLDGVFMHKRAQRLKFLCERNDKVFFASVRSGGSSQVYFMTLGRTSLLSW
Chain of TNIK (Q9UKE5 whole entry): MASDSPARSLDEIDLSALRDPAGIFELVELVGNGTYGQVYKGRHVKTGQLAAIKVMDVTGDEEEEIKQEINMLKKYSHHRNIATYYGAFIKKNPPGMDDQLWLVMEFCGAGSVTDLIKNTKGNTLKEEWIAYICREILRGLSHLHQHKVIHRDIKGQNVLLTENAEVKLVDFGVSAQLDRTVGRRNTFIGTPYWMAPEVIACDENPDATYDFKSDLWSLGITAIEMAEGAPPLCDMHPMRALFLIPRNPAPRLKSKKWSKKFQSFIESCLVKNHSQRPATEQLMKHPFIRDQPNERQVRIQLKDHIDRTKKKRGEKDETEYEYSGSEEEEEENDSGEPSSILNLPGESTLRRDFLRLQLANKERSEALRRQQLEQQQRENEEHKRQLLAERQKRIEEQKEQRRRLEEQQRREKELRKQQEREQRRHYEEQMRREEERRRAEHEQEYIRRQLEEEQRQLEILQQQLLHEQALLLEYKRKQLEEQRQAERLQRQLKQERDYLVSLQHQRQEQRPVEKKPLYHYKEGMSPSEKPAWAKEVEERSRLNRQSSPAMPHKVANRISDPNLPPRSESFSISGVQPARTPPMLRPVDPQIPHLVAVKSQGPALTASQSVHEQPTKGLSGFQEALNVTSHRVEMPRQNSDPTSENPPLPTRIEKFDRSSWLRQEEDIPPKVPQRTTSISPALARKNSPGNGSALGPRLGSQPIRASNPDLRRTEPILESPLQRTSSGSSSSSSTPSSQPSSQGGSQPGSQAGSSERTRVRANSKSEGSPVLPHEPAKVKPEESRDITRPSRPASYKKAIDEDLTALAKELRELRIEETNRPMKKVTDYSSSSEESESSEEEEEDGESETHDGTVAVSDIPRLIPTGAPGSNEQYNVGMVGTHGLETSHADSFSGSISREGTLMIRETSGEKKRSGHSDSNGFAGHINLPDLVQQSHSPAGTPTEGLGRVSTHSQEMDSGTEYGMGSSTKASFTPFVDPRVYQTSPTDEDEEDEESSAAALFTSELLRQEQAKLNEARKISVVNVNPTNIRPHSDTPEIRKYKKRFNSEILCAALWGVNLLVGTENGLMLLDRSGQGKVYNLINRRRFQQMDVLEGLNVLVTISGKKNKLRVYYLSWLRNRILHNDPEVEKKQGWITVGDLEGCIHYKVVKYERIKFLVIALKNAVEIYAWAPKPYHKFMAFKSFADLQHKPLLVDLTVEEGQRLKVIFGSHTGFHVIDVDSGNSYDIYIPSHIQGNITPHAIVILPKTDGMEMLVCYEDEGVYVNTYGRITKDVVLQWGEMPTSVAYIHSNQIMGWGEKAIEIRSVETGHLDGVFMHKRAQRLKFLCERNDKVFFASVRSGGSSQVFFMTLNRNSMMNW

SMILES | IC50 [1, 3] [µM] | IC50 ([1]; read-out: TNIK_IC50) [µM] | IC50 [2] [µM]
Cc1ccc(C)c(NC(=O)c2ccc(-c3c(-c4ccc(F)cc4)ncn3C3CCCC3)o2)c1 [Compound 31, 5-(1-cyclopentyl-4-(4-fluorophenyl)-1H-imidazol-5-yl)-N-(2,5-dimethylphenyl)furan-2-carboxamide] | 0.135 | 0.135 | 0.457
Cc1ccc(NC(=O)c2ccc(-c3c(-c4ccc(F)cc4)ncn3C3CCCC3)o2)c(C)c1 [Compound 32, 5-(1-cyclopentyl-4-(4-fluorophenyl)-1H-imidazol-5-yl)-N-(2,4-dimethylphenyl)furan-2-carboxamide] | 0.012 | 0.012 | 0.0969
CCOC(=O)c1ccc(NC(=O)c2ccc(-c3c(-c4ccc(F)cc4)ncn3C3CCCC3)o2)cc1 [Compound 33, ethyl 4-(5-(1-cyclopentyl-4-(4-fluorophenyl)-1H-imidazol-5-yl)furan-2-carboxamido)benzoate] | 0.027 | 0.027 | 0.0873
Cc1cc(C)c(NC(=O)c2ccc(-c3c(-c4ccc(F)cc4)ncn3C3CCCC3)o2)c(C)c1 [Compound 34, 5-(1-cyclopentyl-4-(4-fluorophenyl)-1H-imidazol-5-yl)-N-mesitylfuran-2-carboxamide] | 0.319 | 0.319 | 0.24
CC(=O)c1cccc(NC(=O)c2ccc(-c3c(-c4ccc(F)cc4)ncn3C3CCCC3)o2)c1 [Compound 35, N-(3-acetylphenyl)-5-(1-cyclopentyl-4-(4-fluorophenyl)-1H-imidazol-5-yl)furan-2-carboxamide] | 0.151 | 0.151 | 0.274
CSc1cccc(NC(=O)c2ccc(-c3c(-c4ccc(F)cc4)ncn3C3CCCC3)o2)c1 [Compound 36, 5-(1-cyclopentyl-4-(4-fluorophenyl)-1H-imidazol-5-yl)-N-(3-(methylthio)phenyl)furan-2-carboxamide] | 0.11 | 0.11 | 0.326
CCc1cccc(C)c1NC(=O)c1ccc(-c2c(-c3ccc(F)cc3)ncn2C2CCCC2)o1 [Compound 37, 5-(1-cyclopentyl-4-(4-fluorophenyl)-1H-imidazol-5-yl)-N-(2-ethyl-6-methylphenyl)furan-2-carboxamide] | 0.9 | 0.9 | > 1
CC(C)c1ccc(NC(=O)c2ccc(-c3c(-c4ccc(F)cc4)ncn3C3CCCC3)o2)cc1 [Compound 38, 5-(1-cyclopentyl-4-(4-fluorophenyl)-1H-imidazol-5-yl)-N-(4-isopropylphenyl)furan-2-carboxamide] | 0.046 | 0.046 | 0.168
CCc1cccc(NC(=O)c2ccc(-c3c(-c4ccc(F)cc4)ncn3C3CCCC3)o2)c1 [Compound 39, 5-(1-cyclopentyl-4-(4-fluorophenyl)-1H-imidazol-5-yl)-N-(3-ethylphenyl)furan-2-carboxamide] | 0.48 | 0.48 | > 1
Cc1ccc(NC(=O)c2ccc(-c3c(-c4ccc(F)cc4)ncn3C3CCCC3)o2)cc1F [Compound 40, 5-(1-cyclopentyl-4-(4-fluorophenyl)-1H-imidazol-5-yl)-N-(3-fluoro-4-methylphenyl)furan-2-carboxamide] | 0.102 | 0.102 | 0.243
O=C(Nc1ccc(F)c(F)c1)c1ccc(-c2c(-c3ccc(F)cc3)ncn2C2CCCC2)o1 [Compound 41, 5-(1-cyclopentyl-4-(4-fluorophenyl)-1H-imidazol-5-yl)-N-(3,4-difluorophenyl)furan-2-carboxamide] | 0.18 | 0.18 | 0.639
O=C(Nc1ccc(Cl)cc1F)c1ccc(-c2c(-c3ccc(F)cc3)ncn2C2CCCC2)o1 [Compound 42, N-(4-chloro-2-fluorophenyl)-5-(1-cyclopentyl-4-(4-fluorophenyl)-1H-imidazol-5-yl)furan-2-carboxamide] | 0.019 | 0.019 | 0.0413
Cc1cc(F)ccc1NC(=O)c1ccc(-c2c(-c3ccc(F)cc3)ncn2C2CCCC2)o1 [Compound 43, 5-(1-cyclopentyl-4-(4-fluorophenyl)-1H-imidazol-5-yl)-N-(4-fluoro-2-methylphenyl)furan-2-carboxamide] | 0.172 | 0.172 | 0.139
O=C(Nc1ccc(OC(F)(F)F)cc1)c1ccc(-c2c(-c3ccc(F)cc3)ncn2C2CCCC2)o1 [Compound 44, 5-(1-cyclopentyl-4-(4-fluorophenyl)-1H-imidazol-5-yl)-N-(4-(trifluoromethoxy)phenyl)furan-2-carboxamide] | 0.523 | 0.523 | 0.61
COc1ccc(NC(=O)c2ccc(-c3c(-c4ccc(F)cc4)ncn3C3CCCC3)o2)cc1Cl [Compound 45, N-(3-chloro-4-methoxyphenyl)-5-(1-cyclopentyl-4-(4-fluorophenyl)-1H-imidazol-5-yl)furan-2-carboxamide] | 0.165 | 0.165 | 0.165
CC(=O)Nc1ccc(NC(=O)c2ccc(-c3c(-c4ccc(F)cc4)ncn3C3CCCC3)o2)cc1 [Compound 46, N-(4-acetamidophenyl)-5-(1-cyclopentyl-4-(4-fluorophenyl)-1H-imidazol-5-yl)furan-2-carboxamide] | 0.024 | 0.024 | 0.0309
Cc1ccc(NC(=O)c2ccc(-c3c(-c4ccc(F)cc4)ncn3C3CCCC3)o2)cc1 [Compound 47, 5-(1-cyclopentyl-4-(4-fluorophenyl)-1H-imidazol-5-yl)-N-(p-tolyl)furan-2-carboxamide] | < 0.01 | 0.0432 | 0.0517
Cc1cccc(NC(=O)c2ccc(-c3c(-c4ccc(F)cc4)ncn3C3CCCC3)o2)c1 [Compound 48, 5-(1-cyclopentyl-4-(4-fluorophenyl)-1H-imidazol-5-yl)-N-(m-tolyl)furan-2-carboxamide] | 0.04 | 0.04 | 0.163
O=C(Nc1ccc(Br)cc1)c1ccc(-c2c(-c3ccc(F)cc3)ncn2C2CCCC2)o1 [Compound 49, N-(4-bromophenyl)-5-(1-cyclopentyl-4-(4-fluorophenyl)-1H-imidazol-5-yl)furan-2-carboxamide] | 0.152 | 0.152 | 0.436
COc1ccccc1NC(=O)c1ccc(-c2c(-c3ccc(F)cc3)ncn2C2CCCC2)o1 [Compound 50, 5-(1-cyclopentyl-4-(4-fluorophenyl)-1H-imidazol-5-yl)-N-(2-methoxyphenyl)furan-2-carboxamide] | < 0.01 | 0.00386 | 0.00446
CC(=O)c1ccc(NC(=O)c2ccc(-c3c(-c4ccc(F)cc4)ncn3C3CCCCC3)o2)cc1 [Compound 51, N-(4-acetylphenyl)-5-(1-cyclohexyl-4-(4-fluorophenyl)-1H-imidazol-5-yl)furan-2-carboxamide] | 0.057 | 0.057 | 0.126
COc1ccc(NC(=O)c2ccc(-c3c(-c4ccc(F)cc4)ncn3C3CCCCC3)o2)cc1OC [Compound 52, 5-(1-cyclohexyl-4-(4-fluorophenyl)-1H-imidazol-5-yl)-N-(3,4-dimethoxyphenyl)furan-2-carboxamide] | 0.06 | 0.06 | 0.104
COc1cccc(NC(=O)c2ccc(-c3c(-c4ccc(F)cc4)ncn3C3CCCCC3)o2)c1 [Compound 53, 5-(1-cyclohexyl-4-(4-fluorophenyl)-1H-imidazol-5-yl)-N-(3-methoxyphenyl)furan-2-carboxamide] | 0.138 | 0.138 | 0.244
COc1ccc(NC(=O)c2ccc(-c3c(-c4ccc(F)cc4)ncn3C3CCCCC3)o2)cc1 [Compound 54, 5-(1-cyclohexyl-4-(4-fluorophenyl)-1H-imidazol-5-yl)-N-(4-methoxyphenyl)furan-2-carboxamide] | 0.06 | 0.06 | 0.107
O=C(Nc1ccccc1Cl)c1ccc(-c2c(-c3ccc(F)cc3)ncn2C2CCCCC2)o1 [Compound 55, N-(2-chlorophenyl)-5-(1-cyclohexyl-4-(4-fluorophenyl)-1H-imidazol-5-yl)furan-2-carboxamide] | 0.024 | 0.024 | 0.0434
O=C(Nc1ccc(Cl)cc1)c1ccc(-c2c(-c3ccc(F)cc3)ncn2C2CCCCC2)o1 [Compound 56, N-(4-chlorophenyl)-5-(1-cyclohexyl-4-(4-fluorophenyl)-1H-imidazol-5-yl)furan-2-carboxamide] | 0.099 | 0.099 | 0.195
O=C(Nc1ccc(F)cc1F)c1ccc(-c2c(-c3ccc(F)cc3)ncn2C2CCCCC2)o1 [Compound 57, 5-(1-cyclohexyl-4-(4-fluorophenyl)-1H-imidazol-5-yl)-N-(2,4-difluorophenyl)furan-2-carboxamide] | 0.038 | 0.038 | 0.111
COc1cc(NC(=O)c2ccc(-c3c(-c4ccc(F)cc4)ncn3C3CCCCC3)o2)cc(OC)c1 [Compound 58, 5-(1-cyclohexyl-4-(4-fluorophenyl)-1H-imidazol-5-yl)-N-(3,5-dimethoxyphenyl)furan-2-carboxamide] | 0.275 | 0.275 | 0.581
Cc1cccc(NC(=O)c2ccc(-c3c(-c4ccc(F)cc4)ncn3C3CCCCC3)o2)c1C [Compound 59, 5-(1-cyclohexyl-4-(4-fluorophenyl)-1H-imidazol-5-yl)-N-(2,3-dimethylphenyl)furan-2-carboxamide] | 0.562 | 0.562 | > 1

From US11739078B2, “Methods of inhibiting kinases” (INSILICO MEDICINE IP LIMITED, priority 2019, dated 2023)
